Consider 7 compounds from patent US11643691B2, “Predictive biomarkers for cancer immunotherapy and methods of using same” (Duke University, priority 2018, dated 2023).

Experiment [1] deals with CD4+FoxP3+ Treg cells. The experiment can be described thus: In vitro Treg cell assay (conditioned DCs with naive CD4+ T cells). Type of experiment: cell-based, mice. The following applies: for DC-mediated Treg cell differentiation in vitro: treated DCs co-cultured with naive CD4+ T cells. As for the experimental part:
(§1) Dendritic Cell Conditioning: DCs were treated with Wnt3a (100 ng/mL), Wnt5a (200 ng/mL), LPS (1 μg/mL), 1-MT (1 mM), 2DG (1 mM), or ETO (100 μM), 2-DG(2-deoxy-d-glucose, 1 mM), Oligomycin (1 μM), succinylacetone (250 μM), or vehicle control either for 24 or 48 hrs prior to their use in both in vitro and in vivo experiments.
Treg Cell Assays: For in vivo Treg cell assays, DCs (C57, H-2b) were pre-treated for 48 hours and delivered by intradermal injection into the footpad of Foxp3-mRFP mice. Draining inguinal and popliteal lymph nodes were resected 5 days later and analyzed for CD4+Foxp3+ Treg cells. For in vitro Treg cell assays, DCs (Balb/c, H-2d) were pre-treated for either 24 or 48 hrs, and re-plated at a 1:3 DC:T-cell ratio with purified allogeneic naive Foxp3-mRFP(H-2b) CD44loCD62LhiCD4+ Tcells. These co-cultures were incubated for 6 days and quantitated for CD4+FoxP3+ Treg cells by flow cytometry.

The subject of experiment [2] is CD8+ T cell proliferation. The experiment is described as follows: T cell proliferation assay (CellTrace Violet dilution, OT-1 splenocytes with conditioned DCs). Format: cell-based, mice. The following applies: DCs pre-treated, LPS stimulated. As to the method:
T Cell Proliferation Assay: Splenocytes of OT-1 mice (H-2b) were isolated and stained with CellTrace Violet (ThermoFisher). Preconditioned DCs were loaded with ovalbumin peptide SIINFEKL, and co-cultured at a DC:splenocyte ratio of 40,000:120,000 cells for 72 hrs. CD8+ T cell proliferation was measured by the dilution of Cell Trace Violet dye by flow cytometry.

Experiment [3] relates to DCs. The experiment can be described thus: Extracellular acidification rate (ECAR), Seahorse XFe24 flux analysis of DCs. Format: cell-based, Murine. As to the method: as §1
(§2) Cellular Energy Metabolism Analysis: DC energy metabolism was measured using the XFe24 extracellular flux analyzer (Seahorse Bioscience), with the glycolysis stress test kit and the mitochondrial stress test kit as previously described (Everts et al., 2014, Zhao and Klimecki, 2015). For experiments involving LPS injection, DCs were plated in XFe24 plates (200,000/well in 500p1) and treated with LPS for 48 hours prior to XF analysis. DCs were washed and analyzed in XF media (RPMI without sodium bicarbonate, 10 mM glucose, 1% FBS, 2 mM L-glutamine). ECAR was analyzed in real-time with or without LPS stimulation. For experiments involving BrafV600EPten−/− cell line-derived conditioned media (CM), collected CM was concentrated and desalted with an Amicon Ultra 30K filter according to manufacturer's recommendations (Milipore). Final concentrate was further washed with XF media 3 times, added to DCs immediately prior to OCR analysis. For standard ECAR analysis, XF media (without glucose) was used to wash cells prior to the assay. A final concentration of 10 mM glucose, 1 μM oligomycin, 50 mM 2-DG(sigma) were injected through XFe24 port A-C. For standard OCR analysis, XF media (with 10 mM glucose) was used to wash cells, a final concentration of 1 μM oligomycin, 1.5 μM FCCP (fluoro-carbonyl cyanide phenylhydrazone), 100 nM rotenone, and 1 μM of antimycin-A (Sigma) were injected through XFe24 port A-C.

Experiment [4] deals with syngeneic BRAF^V600EPTEN^−/− melanomas. The experiment can be described thus: Syngeneic melanoma study with NLRP3i and anti-PD-1 ab. Format: in vivo. As to the method:
(A) Treatment of syngeneic BRAF^V600EPTEN^−/− melanomas with IgG isotype control ab (200 μg ip every 3 days), NLRP3i (MCC950 10 μg ip every 3 days), anti-PD-1 ab (200 μg ip every 3 days), or both NLRP3i and anti-PD-1 ab combination therapy (n=8). (B) Gr-MDSC flow cytometry analysis of resected BRAF^V600EPTEN^−/− melanomas following treatment with IgG isotype control ab, NLRP3i, anti-PD-1 ab, or both NLRP3i and anti-PD-1 ab combination therapy (n=4). top, representative flow cytometry dot plot. (C) CD8^+ T cell flow cytometry analysis of resected BRAF^V600EPTEN^−/− melanomas following treatment with IgG isotype control ab, NLRP3i, anti-PD-1 ab, or both NLRP3i and anti-PD-1 ab combination therapy (n=4). All data is mean±SEM. *P<0.05.
As depicted in FIG. 21A, NLRP3 inhibition can be combined with a […] (e.g. PD-1 inhibitor) to augment the anti-tumor effect of the PD-1 inhibitor therapy.

Experiment [5] has as its system DCs. The experiment can be described thus: PpIX flow cytometry analysis and hemin colorimetric assay. Type of experiment: cell-based, Murine. As for the experimental part: IDO enzymatic assay and Hemin assay: DC IDO enzyme activity was measured by the conversion of L-tryptophan to L-kynurenine in conditioned media by HPLC (Pallotta et al., 2011). Intracellular hemin was measured using a colorimetric assay kit (BioVision).
PpIX Analysis: DCs were terminally incubated in the presence of 1 mM δ-aminolevulinic acid (ALA) for 4 hrs. Intracellular PpIX was analyzed by flow cytometry as previously described (Hryhorenko et al., 1998).

For experiment [6], the system named is DCs. The experiment can be described thus: Oxygen consumption rate (OCR) / OXPHOS, Seahorse XFe24 flux analysis of murine DCs. Type of experiment: cell-based. Conditions: DCs pre-treated. As to the method: as §1
as §2, with “A final concentration of 10 mM glucose, 1 μM oligomycin, 50 mM 2-DG(sigma) were injected through XFe24 port A-C. For standard OCR analysis, XF media (with 10 mM glucose) was used to wash cells, a final concentration of 1 μM oligomycin, 1.5 μM FCCP (fluoro-carbonyl cyanide phenylhydrazone), 100 nM rotenone, and 1 μM of antimycin-A (Sigma) were injected through XFe24 port A-C.” left out

For experiment [7], the system named is DCs. The experiment can be described thus: qRT-PCR / qPCR array / immunoblot gene expression in DCs. Format: cell-based, Murine. As for the experimental part: Dendritic Cell Conditioning: DCs were treated with Wnt3a (100 ng/mL), Wnt5a (200 ng/mL), LPS (1 μg/mL), 1-MT (1 mM), 2DG (1 mM), or ETO (100 μM), 2-DG(2-deoxy-d-glucose, 1 mM), Oligomycin (1 μM), succinylacetone (250 μM), […]
Antibodies, Immunoprecipitation, and Immunoblot Analysis: Primary antibodies including CPT1A (Cell signaling), PPAR-γ (Santa Cruz Biotechnology), β-catenin, β-actin (Millipore), p-AMPK(T172)/AMPK (Cell signaling), p-AKT(T308)/Akt (Cell Signaling) were used at 1:1000. Secondary antibodies including goat anti-rabbit IgG-HRP (Millipore) and goat anti-mouse IgG-HRP (Millipore) were used at 1:5000. Cells were lysed in Laemmli sample buffer after treatment and subjected to SDS-polyacrylamide gel electrophoresis and immunoblot analysis. For immunoprecipitation, cells were lysed in radio immunoprecipitation assay (RIPA) buffer [10 mM sodium phosphate (pH 8.0), 150 mM NaCl, 1% Triton X-100, 1% sodium deoxycholate, and 0.1% SDS in the presence of 1 mM DTT, 1 mM phenylmethylsulfonylfluoride, and a protease inhibitor cocktail (Sigma)], precleared with protein A beads, and then incubated with 1 μg of antibody against β-catenin or isotype control IgG with protein A-agarose beads on a rotator overnight at 4° C. After 3 washes with RIPA buffer, immunoprecipitated complexes were eluted in sample buffer by boiling and subjected to immunoblot analysis. Immunoblots were visualized by chemiluminescence substrate (ThermoFisher) and imaged by a ChemiDoc XRSplus system (BioRad).
RNA Isolation, RT-qPCR, qPCR Array: Total RNA was isolated by RNeasy Plus Mini Kit(Qiagen). RNA(500 ng) were used in cDNA Synthesis (iScript, BioRad). Quantification of mRNA for genes involved in PPARγ signaling was performed using Mouse PrimePCR PPAR Array according to the manufacturer's protocol (BioRad). Real-time PCR was performed using an ABI7500 Real-Time PCR system (Life Technologies). Data analysis utilized the PrimePCR Analysis Software (BioRad). Conventional qPCR was performed using validated primers, and SsoAdvanced Universal SYBR Green Super mix (BioRad) or Taqman probes (Applied Biosystems) for heme synthesis enzymes.

`O=CC[C@@H](O)[C@H](O)[C@H](O)CO` [2-DG, 2-Deoxy-D-glucose, reference compound]: the “DC-mediated Treg cell differentiation in vitro” value in experiment [1] is “enhanced Treg cell differentiation in vitro”. Besides, the “LPS-induced DC-mediated antigen-specific T cell proliferation” value in experiment [2] is reported as “suppresses LPS-induced DC-mediated antigen-specific T cell proliferation”.

Consider `NC(=O)c1ncn([C@@H]2O[C@H](CO)[C@@H](O)[C@H]2O)c1N` [AICAR, reference compound], for which the “LPS-induced glycolytic surge (ECAR)” value in experiment [3] (DCs pre-treated) is “antagonize the glycolytic surge required for DC maturation”.

Turning to `CC(C)(O)c1coc(S(=O)(=O)NC(=O)Nc2c3c(cc4c2CCC4)CCC3)c1` [MCC950], the “efficacy of anti-PD-1 ab immunotherapy” value in experiment [4] (NLRP3i added to anti-PD-1 ab) is given as “Enhances the Efficacy of Anti-PD-1 Ab Immunotherapy”. Moreover, the “Gr-MDSC recruitment (Ly6G+ Gr-MDSCs)” value in experiment [4] (flow cytometry of resected melanomas) was “Suppresses Gr-MDSC Recruitment”.

With `Oc1nc(-c2ccc(C(F)(F)F)cc2)nc2c1CSCC2` [XAV939, reference compound], in experiment [3], the “glycolysis in DCs (ECAR)” value is “promoted glycolysis in DCs”.

As to `CC[C@H]1/C=C/C=C/C[C@@H](C)[C@H](O)[C@@](C)(O)C(=O)[C@@H](C)[C@H](O)[C@@H](C)C(=O)[C@@H](C)[C@H](O)[C@@H](C)/C=C/C(=O)O[C@@H]2[C@H](C)[C@H](CC1)O[C@]1(CC[C@H](C)[C@H](C[C@@H](C)O)O1)[C@H]2C` [oligomycin, Oligomycin], the “DC-mediated Treg cell differentiation in vitro” value in experiment [1] is listed as “eliminated these Treg cell populations”.

In the case of `CC(=O)CC(=O)CCC(=O)O` [succinylacetone, 4,6-Dioxoheptanoic acid], the “ability of Wnt5a-conditioned DCs to drive Treg cell differentiation in vitro” value in experiment [1] (Wnt5a plus inhibitor) is listed as “significantly abrogated the ability of Wnt5a-stimulated DCs to promote Treg cell generation”.

For Wnt3a, the “DC concentrations of PpIX and hemin” value in experiment [5] is “failed to enhance PpIX synthesis in DCs”. In addition, the “DC-mediated Treg cell differentiation in vitro” value in experiment [1] is recorded as “failed to condition DCs to promote Treg cell differentiation”. In addition, in experiment [6], the “OXPHOS in DCs (OCR)” value is reported as “no changes”. Besides, the “expression of Alas1 and further enzymes of PpIX synthesis” value in experiment [7] (qRT-PCR) is “not”. Moreover, the “PPAR-γ (Pparg) and CPT1A (Cpt1a) expression” value in experiment [7] (real-time qPCR and immunoblot, murine and human DCs for rWnt5a) is “failed to induce expression of both PPAR-γ and CPT1A in DCs”. Also, in experiment [3], the “glycolysis in DCs (ECAR)” value is reported as “no changes”.
